Laboratory results taken from patent US20240315237A1, “METHODS FOR SINGLE CELL ANALYSIS OF GLUCOSE INTERNALIZATION” (ABBOTT DIABETES CARE INC., priority 2023, published 2024).
Where “and” joins values, the source holds several entries; their conditions need not be identical. Equal values may be shown once. Entries after “also recorded” stand apart in the source; their conditions may differ.

Tests used:
Format in all cases: cell-based
[1] = tested on: human erythrocytes; test: single cell 2-NBDG uptake in anchored RBCs (microfluidic perfusion, confocal microscopy)
Method: Sample preparation. Human whole blood from an individual donor was drawn into sodium heparin (NaHep) and shipped cold. Samples were received directly from BioIVT LLC and placed into 4° C. refrigeration until prepared for experimentation. Samples removed from refrigeration for experimentation purposes were first inverted for three minutes and then 200 μL were drawn from the collection tubes and placed into a fresh 1.5 mL centrifuge tube containing 1 mL of 125 mM KCl solution. Samples were gently inverted 5-10× and then placed in a 4° C. centrifuge and spun using a modified RBC isolation protocol aimed at reducing clotting of whole blood and deformation of RBCs (Hanson et al., American Journal of Physiology Heart and Circulatory Physiology, 2008. 295(2): p. H786-H793). Centrifugation-based separation of RBCs was performed at 2000 RPM (490×g) for 5 minutes. After centrifugation, supernatant was removed along with buffy coat (white blood cells, etc.) using a pipette and a fresh 1 mL of KCl solution was then added. This process was repeated 3× to isolate RBCs and diminish intracellular glucose.
Samples were then vortexed gently and placed on a 37° C. shaker at 400 RPM for one hour for incubation. Due to the high expression of glycophorin A+B in erythrocytes, it was a simple membrane target for antibody anchoring of cells to the microfluidic imaging surface using the biotin binding Neutravidin™ system.
Microfluidic Perfusion. An ONIX microfluidic perfusion system from CellAsic (Millipore Sigma) was used for flow-based experiments. The system comprises a perfusion pump system, which connects to a PC for multidimensional control of flow rates (converted from applied kPa, i.e., 27.6 kPA=20 μL/hr) and duration. The plates used for experiments herein are model Y04C. This plate system has a #1.5 glass bottom for imaging and contains four separate channels which have an observation region where fluid switching can occur homogenously. Plates were removed from vacuum packaging the day of experimentation and storage PBS was removed using a vacuum system. Each well was then filled with 400 μL of KCl solution and placed on the perfusion system. KCl solution was flowed through each channel and well (except for the waste well #7) at 20 μL/hr for 20 minutes to flush out any storage PBS. Next, one of the wells (#1 for each channel) was filled with 100 μL 0.1 mg/mL Pierce™ biotinylated-bovine serum albumin (B-BSA, Cat #29130, Thermo Scientific) in 125 mM KCl solution and this was then flowed through for 15 minutes total, then allowed to incubate for 15 minutes at room temperature. After the B-BSA was deposited on the glass surface of the channels, a 0.1 mg/mL solution of Neutravidin (Cat #31000, Thermo Scientific) in KCl solution was flowed for 15 minutes at room temperature to build a surface anchoring system for red blood cells.
For uptake measurements, cells incubated with biotinylated-α-glycophorin A+B antibodies were diluted 1:1 in KCl solution within well #8 and perfused using 20 μL/hr in combination with well #5 containing KCl solution only at 20 μL/hr for 10 seconds. Flowed cells were then allowed to incubate with the cell anchoring system described above for three minutes. […] Immediately after this time point, well #2 was stopped, and KCl solution only from well #5 was perfused at 20 μL/hr to wash away tracer (“washout”).
For uptake measurements, the 488 nm laser was configured for excitation to a power level of 0.07% of total laser voltage (i.e., 3.5 μW before the objective) with a pixel dwell time of 0.24 μs. For detection, the detector bandwidth was set to admit wavelengths 520 nm to 560 nm with a master gain of 500 V and digital gain set to 1×. The field of view was 1944 pixels×1944 pixels (or 192.8 μm×192.8 μm) which led to a total frame time of 989.11 ms for a single acquisition. With these settings and using the 40× magnification, the pixel size was ˜0.1 μm×˜0.1 μm.

[2] = target: T1, GLUT1 (Homo sapiens, UniProt P11166); test: glucose competition study with unlabeled D-glucose (flow cytometry); details: 20 μM tracer; for mean intensity maintained, % of the mean intensity of the control sample: 100 mM unlabeled D-glucose (5000× tracer), 60 min, 37° C., human RBCs
T1 construct: Adult human RBCs exclusively express the glucose transporter 1 (GLUT1) encoded by the SLC2A1 gene; endogenous in cells; host or cells: human erythrocytes (RBCs) isolated from blood
T1 sequence (P11166 1-492): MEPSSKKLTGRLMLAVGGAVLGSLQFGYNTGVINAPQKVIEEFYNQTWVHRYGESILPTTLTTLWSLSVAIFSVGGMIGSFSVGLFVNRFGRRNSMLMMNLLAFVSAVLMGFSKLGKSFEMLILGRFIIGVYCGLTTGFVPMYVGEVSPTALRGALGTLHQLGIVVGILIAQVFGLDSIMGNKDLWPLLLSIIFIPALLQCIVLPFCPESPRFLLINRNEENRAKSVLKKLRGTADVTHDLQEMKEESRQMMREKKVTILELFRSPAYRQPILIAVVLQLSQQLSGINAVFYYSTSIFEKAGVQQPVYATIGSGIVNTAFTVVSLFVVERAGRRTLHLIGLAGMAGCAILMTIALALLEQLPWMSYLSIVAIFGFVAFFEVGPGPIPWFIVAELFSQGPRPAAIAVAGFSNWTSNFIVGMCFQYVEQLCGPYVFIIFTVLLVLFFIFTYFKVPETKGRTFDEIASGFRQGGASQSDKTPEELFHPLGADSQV
Method: (§1) To test the tracer specificity, a competition experiment was first performed on the flow cytometer under identical settings as were used in the membrane integrity experiments above. Aliquots of solutions of RBCs containing KCl solution and 20 μM of a given glucose tracer were incubated for 60 minutes at 37° C. shaker at 400 RPM containing a selected concentration of unlabeled D-glucose (i.e., 0.00, 0.01, 0.50, 1.00, 5.00, 25.00, 50.00 or 100.00 mM). After incubation, cells were washed one time in 125 KCl solution containing the selected concentration of D-glucose and promptly measured on the flow cytometer using the conditions described above. Next, GLUT1-specific transport was further tested by preparing washed RBC solutions as described above and then incubating the RBC solutions with one of the GLUT1 inhibitors on a 37° C. shaker at 400 RPM for one hour of incubation. […] Samples were then spun down, and supernatant was removed and fresh inhibitor/KCl solution was added and inverted. Glucose tracers were then added at working concentrations of 20 μM and incubated for 30 minutes on a 37° C. shaker at 400 RPM. After 30 minutes, cells were quickly spun down again using the protocol described in herein and supernatant was removed and replaced with fresh inhibitor/KCl solution before immediately being placed on the flow cytometer. Each sample was run on the flow cytometer using identical settings described above.

[3] = target: T1, GLUT1; test: small molecule GLUT1 inhibition study of tracer uptake (flow cytometry)
Method: as §1, with “Each sample was run on the flow cytometer using identical settings described above.” left out

[4] = 5 mM 2-NBDG, all cells, height corrected, FIG. 16B
[5] = normalized to the all donor mean, N=45, FIG. 18

O=C[C@H](Nc1ccc([N+](=O)[O-])c2nonc12)[C@@H](O)[C@H](O)[C@H](O)CO [2-NBDG, 2-deoxy-2-[(7-nitro-2,1,3-benzoxadiazol-4-yl)amino]-D-glucose]
time to saturation point of intracellular 2-NBDG intensity ([1]; 5 mM 2-NBDG, 20 μL/hr, FIG. 11B): within several seconds | mean intracellular glucose fraction, typical patient with higher fraction ([1]; 5 mM 2-NBDG, 1802 cells, cell heights ≥2.1 μm, mean±1 SD, FIG. 14B): 6.7% and 6.7%±2.3% | mean intracellular glucose fraction, typical patient with lower fraction ([1]; 5 mM 2-NBDG, 2343 cells, cell heights ≥2.1 μm, mean±1 SD, FIG. 14A): 4.6% and 4.6%±1.6% | mean intracellular percentage for this patient blood sample ([1]; 5 mM 2-NBDG, FIG. 11C): 4.9% | intracellular glucose percentage, Black patients ([1]; 5 mM 2-NBDG, FIG. 16A, n=20, mean±1 SD): 0.057±0.018 | intracellular glucose percentage, Caucasian/Hispanic patients ([1]; 5 mM 2-NBDG, FIG. 16A, n=25, mean±1 SD): 0.044±0.018 | mean (+/−SD) uptake normalized to overall mean, Black ancestry ([1]; 5 mM 2-NBDG, FIG. 17): 118%+/−39% | mean (+/−SD) uptake normalized to overall mean, White ancestry ([1]; 5 mM 2-NBDG, FIG. 17): 86%+/−36% | corrected intracellular glucose percentage (HCIG), Black patients [1, 4]: 0.060±0.020 | corrected intracellular glucose percentage (HCIG), Caucasian/Hispanic patients [1, 4]: 0.044±0.018 | stability of saturating intracellular level (plateau) ([1]; extended duration measurements, FIGS. 13A-13B): stable for several hours | mean normalized intracellular glucose, Black sub-group [1, 5]: 1.18 | mean normalized intracellular glucose, Hispanic/Caucasian sub-group [1, 5]: 0.86 | competition with unlabeled D-glucose among three tracers ([2]; 0.00-100.00 mM D-glucose, FIG. 9C): highest competition | mean intensity maintained, % of the mean intensity of the control sample [2]: 1.4% | inhibition of tracer uptake by GLUT1 inhibitors, compared with other tracers ([3]; Phloretin, Cytochalasin B, WZB117, STF-31, BAY-876, 20 μM tracer, FIG. 1B): most inhibition; also recorded: consistently the most inhibited | specificity for the GLUT1 transporter ([3]; human RBCs, inhibitor panel and glucose competition experiments): highest specificity; also recorded: GLUT1 specific

D-Glucose-Silicon rhodamine [D-glucose-SIR]
mean intensity maintained, % of the mean intensity of the control sample [2]: 41.9%

6-deoxy-2-[(7-nitro-2,1,3-benzoxadiazol-4-yl)amino]-D-glucose [6-NBDG]
mean intensity maintained, % of the mean intensity of the control sample [2]: 13.8%
